The record followed here is publication PMC11290450, “Isocyanides inhibit bacterial pathogens by covalent targeting of essential metabolic enzymes” (Chemical Science, 2024).

Values after ≈ are worked out from the molar mass of the structure shown.

The subject of data set [1] is T1, E. coli K12.
T1 construct: K12
Briefly: microbe, parasite or virus in culture. As to conditions: Escherichia coli, K12, 20 h. On the set-up: broth microdilution MIC, visible growth (turbidity or pellet). On the procedure:
(§1) faecalis, E. faecium. S. epidermidis, S. pyogenes and S. pneumonia strains were cultivated in brain heart infusion medium (BHB, 7.5 g/L brain infusion, 10 g/L heart infusion, 10 g/L casein peptone, 5 g/L NaCl, 2.5 g/L Na2HPO4, 2 g/L glucose). Cell culture Cell culture media and supplements were purchased from Merck. HeLa cells were cultured in Dulbecco’s Modified Eagle Medium (DMEM, high glucose, 4.5 g/L) supplemented with 10% fetal bovine serum (FBS) and 2 mM L-glutamine at 37 °C in a 5% CO2 atmosphere. Accutase (Merck) was used for cell detachment. Minimum inhibitory concentration (MIC) The minimum inhibitory concentration (MIC) was determined by using the broth microdilution assay. 1 µL of compound stock solution in DMSO was pipetted to the wells of row 1 of a sterile flat bottom 96-well plate containing 100 µL growth medium and thoroughly mixed. Subsequently, a 1:1 serial dilution was performed in the growth medium from row 1 to row 10. […] Plates were incubated for 20 h (37 °C, 200 rpm; for Streptococcus pneumoniae DSM30104 and Streptococcus pyogenes ATCC700294: 5% CO2 atmosphere, 37 °C without shaking), and the dilution series were analyzed for microbial growth, indicated by turbidity and/or a pellet. […] MIC values were determined in technical triplicates and confirmed in two or three independent biological experiments. […]

The subject of a further data set is T2, S. aureus USA300 Lac.
T2 construct: USA300 LAC
Briefly: microbe, parasite or virus in culture. Also noted: broth microdilution MIC, visible growth (turbidity or pellet). As to conditions: Staphylococcus aureus, USA300, 20 h. On the procedure:
as §1

The target of data set [2] is T3, cytochrome P450 2D6 (Homo sapiens, UniProt P10635).
T3 construct: gene CYP2D6
T3 sequence (P10635 whole entry): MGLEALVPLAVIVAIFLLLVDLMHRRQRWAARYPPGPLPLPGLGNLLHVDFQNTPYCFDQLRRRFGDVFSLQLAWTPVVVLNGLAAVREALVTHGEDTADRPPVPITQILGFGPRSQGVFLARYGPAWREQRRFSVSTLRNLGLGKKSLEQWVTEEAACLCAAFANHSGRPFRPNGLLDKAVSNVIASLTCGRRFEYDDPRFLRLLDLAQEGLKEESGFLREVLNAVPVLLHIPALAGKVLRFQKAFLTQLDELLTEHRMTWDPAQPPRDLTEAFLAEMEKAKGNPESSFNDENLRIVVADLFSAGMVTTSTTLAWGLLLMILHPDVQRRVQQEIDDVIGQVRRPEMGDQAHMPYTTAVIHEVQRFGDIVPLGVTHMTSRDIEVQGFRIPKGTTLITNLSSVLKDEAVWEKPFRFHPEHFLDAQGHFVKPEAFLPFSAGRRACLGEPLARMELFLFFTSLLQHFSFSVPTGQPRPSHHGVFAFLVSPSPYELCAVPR
Briefly: biochemical. Also noted: CYP inhibition in human liver microsomes, conversion of isoform-specific substrates. As to conditions: substrate dextromethorphan; liver microsomes. On the procedure:
(§2) To cover a broad range of structurally diverse compounds, we gathered commercially available primary, secondary, tertiary, vinyl and aromatic [compound left out] for antibacterial testing (Table S1 ^†). […] The minimum inhibitory concentration (MIC) of forty-two compounds was determined in Gram-positive Staphylococcus aureus and Gram-negative Escherichia coli cells up to 50 μM. […] The compound was tested against a panel of Gram-positive and Gram-negative pathogens. Although no antibiotic effects against Gram-negative strains were observed, Bacillus subtilis, Listeria monocytogenes, Staphylococcus epidermidis, and Streptococcus pneumoniae could be inhibited at low micromolar concentrations of I16 (Table S2 ^†). […] This was further corroborated by evaluation I16 in four different human cytochrome P450 enzymes (CYPs).
(In general: Microsomes from liver hold many membrane-bound enzymes, among them those of drug oxidation.)

Data set [3] concerns the target T4, cytochrome P450 3A4 (Homo sapiens, UniProt P08684).
T4 construct: gene CYP3A4
Briefly: biochemical. To be noted: substrate midazolam; liver microsomes. On the set-up: CYP inhibition in human liver microsomes, conversion of isoform-specific substrates. On the procedure: as §2

Data set [4] has as its target T5, cytochrome P450 1A2 (Homo sapiens, UniProt P05177).
T5 construct: gene CYP1A2
Nature of the data set: biochemical. Also noted: CYP inhibition in human liver microsomes, conversion of isoform-specific substrates. As to conditions: substrate phenacetin; liver microsomes. On the procedure:
as §2

The target in data set [5] is T6, cytochrome P450 2C9 (Homo sapiens, UniProt P11712).
T6 construct: gene CYP2C9
T6 sequence (P11712 whole entry): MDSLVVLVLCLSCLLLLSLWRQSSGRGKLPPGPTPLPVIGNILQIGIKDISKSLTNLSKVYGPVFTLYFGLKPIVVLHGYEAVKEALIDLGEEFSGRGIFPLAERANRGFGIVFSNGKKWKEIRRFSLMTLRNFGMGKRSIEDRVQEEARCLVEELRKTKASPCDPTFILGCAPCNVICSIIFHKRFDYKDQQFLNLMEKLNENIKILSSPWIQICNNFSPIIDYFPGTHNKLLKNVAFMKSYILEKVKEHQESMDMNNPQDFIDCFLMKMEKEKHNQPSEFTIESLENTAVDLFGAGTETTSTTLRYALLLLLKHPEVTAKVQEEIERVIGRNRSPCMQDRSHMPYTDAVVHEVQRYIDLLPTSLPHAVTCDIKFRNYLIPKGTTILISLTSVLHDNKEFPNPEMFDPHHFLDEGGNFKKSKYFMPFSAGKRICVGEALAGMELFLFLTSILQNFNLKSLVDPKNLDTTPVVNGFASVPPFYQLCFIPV
Briefly: biochemical. To be noted: substrate diclofenac; liver microsomes. On the set-up: CYP inhibition in human liver microsomes, conversion of isoform-specific substrates. The protocol:
as §2

Data set [6] deals with T4, cytochrome P450 3A4. Nature of the data set: CYP inhibition assay (Table S3). The class given is biochemical.
In data set [7] the target is T6, cytochrome P450 2C9. Nature of the data set: CYP inhibition assay (Table S3). The class given is biochemical.
Data set [8] relates to T1, E. coli K12. Briefly: microbe, parasite or virus in culture. Also noted: broth microdilution MIC, visible growth (turbidity or pellet). To be noted: Escherichia coli, K12, 20 h. On the procedure:
(§3) faecalis, E. faecium. S. epidermidis, S. pyogenes and S. pneumonia strains were cultivated in brain heart infusion medium (BHB, 7.5 g/L brain infusion, 10 g/L heart infusion, 10 g/L casein peptone, 5 g/L NaCl, 2.5 g/L Na2HPO4, 2 g/L glucose). Cell culture Cell culture media and supplements were purchased from Merck. HeLa cells were cultured in Dulbecco’s Modified Eagle Medium (DMEM, high glucose, 4.5 g/L) supplemented with 10% fetal bovine serum (FBS) and 2 mM L-glutamine at 37 °C in a 5% CO2 atmosphere. Accutase (Merck) was used for cell detachment. Minimum inhibitory concentration (MIC) The minimum inhibitory concentration (MIC) was determined by using the broth microdilution assay. 1 µL of compound stock solution in DMSO was pipetted to the wells of row 1 of a sterile flat bottom 96-well plate containing 100 µL growth medium and thoroughly mixed. Subsequently, a 1:1 serial dilution was performed in the growth medium from row 1 to row 10. 50 µL of bacterial suspension (1:10,000 dilution of an overnight culture in the respective growth medium) was added to each well containing compound and the growth control (row 11). A sterile control containing only medium was included (row 12). The final volume was 100 µL per well. Plates were incubated for 20 h (37 °C, 200 rpm; […] ATCC700294: 5% CO2 atmosphere, 37 °C without shaking), and the dilution series were analyzed for microbial growth, indicated by turbidity and/or a pellet. The lowest concentration in the dilution series at which no growth of bacteria could be observed was defined as the MIC of the compound. MIC values were determined in technical triplicates and confirmed in two or three independent biological experiments. The [compound left out] library was screened once in technical triplicates. The MIC is reported as mean of technical triplicates. If the MIC varied between biological replicates, concentration ranges are indicated.
The source holds these as a separate data set.

The next data set concerns T7, S. typhimurium LT2.
T7 construct: LT2
Nature of the data set: microbe, parasite or virus in culture. On the set-up: broth microdilution MIC, visible growth (turbidity or pellet). As to conditions: Salmonella enterica, TYPHIMURIUM, 20 h. On the procedure: as §3

In the next data set the test system is T8, S. pneumoniae DSM 20567.
T8 construct: DSM 20567
Briefly: microbe, parasite or virus in culture. As to conditions: Streptococcus pneumoniae, DSM20567, 20 h. Also noted: broth microdilution MIC, visible growth (turbidity or pellet). The protocol:
as §3

For the next data set, the system named is T9, K. pneumoniae DSM 30104.
T9 construct: DSM 30104
Briefly: microbe, parasite or virus in culture. Also noted: broth microdilution MIC, visible growth (turbidity or pellet). To be noted: Klebsiella pneumoniae, DSM30104, 20 h. On the procedure: as §3

The test system of the next data set is T10, S. epidermidis RP62 A.
T10 construct: RP62A
Briefly: microbe, parasite or virus in culture. Also noted: broth microdilution MIC, visible growth (turbidity or pellet). To be noted: Staphylococcus epidermidis, RP62A, 20 h. On the procedure:
as §3

The next data set has as its system T11, L. monocytogenes EGD-e.
T11 construct: EGD-e
Nature of the data set: microbe, parasite or virus in culture. Also noted: broth microdilution MIC, visible growth (turbidity or pellet). As to conditions: Listeria monocytogenes, 20 h. The protocol: as §3

A further data set relates to T12, S. aureus NCTC 8325.
T12 construct: NCTC 8325
Nature of the data set: microbe, parasite or virus in culture. As to conditions: Staphylococcus aureus, NCTC8325, 20 h. On the set-up: broth microdilution MIC, visible growth (turbidity or pellet). The protocol:
as §3

A further data set concerns T13, A. baumannii ATCC 19606.
T13 construct: ATCC 19606
Briefly: microbe, parasite or virus in culture. As to conditions: Acinetobacter baumannii, ATCC19606, 20 h. Also noted: broth microdilution MIC, visible growth (turbidity or pellet). The protocol: as §3

A further data set concerns T14, S. pyogenes ATCC 700294.
T14 construct: ATCC 700294
Briefly: microbe, parasite or virus in culture. On the set-up: broth microdilution MIC, visible growth (turbidity or pellet). To be noted: Streptococcus pyogenes, ATCC700294, 20 h. On the procedure:
as §3

A further data set deals with T15, B. subtilis 168.
T15 construct: 168
Nature of the data set: microbe, parasite or virus in culture. Also noted: broth microdilution MIC, visible growth (turbidity or pellet). To be noted: Bacillus subtilis, 168, 20 h. The protocol:
as §3

Another data set concerns T16, E. faecalis V583.
T16 construct: V583
Nature of the data set: microbe, parasite or virus in culture. To be noted: Enterococcus faecalis, V583, 20 h. Also noted: broth microdilution MIC, visible growth (turbidity or pellet). On the procedure:
as §3

The subject of a further data set is T17, S. aureus USA300 LAC J2.
T17 construct: USA300 LAC JE2
Nature of the data set: microbe, parasite or virus in culture. To be noted: Staphylococcus aureus, USA300, 20 h. Also noted: broth microdilution MIC, visible growth (turbidity or pellet). On the procedure: as §3

The subject of another data set is T18, E. coli UTI89.
T18 construct: UTI89
Nature of the data set: microbe, parasite or virus in culture. On the set-up: broth microdilution MIC, visible growth (turbidity or pellet). To be noted: Escherichia coli, UTI89, 20 h. The protocol: as §3

Another data set deals with T19, P. aeruginosa PAO1.
T19 construct: PAO1
Briefly: microbe, parasite or virus in culture. On the set-up: broth microdilution MIC, visible growth (turbidity or pellet). To be noted: Pseudomonas aeruginosa, PAO1, 20 h. The protocol: as §3

The subject of another data set is T20, A. baumannii 5075.
T20 construct: AB5075
Briefly: microbe, parasite or virus in culture. Also noted: broth microdilution MIC, visible growth (turbidity or pellet). To be noted: Acinetobacter baumannii, 5075, 20 h. On the procedure:
as §3

Another data set has as its system T21, E. faecium DSM17050.
T21 construct: DSM 17050
Nature of the data set: microbe, parasite or virus in culture. On the set-up: broth microdilution MIC, visible growth (turbidity or pellet). To be noted: Enterococcus faecium, DSM17050, 20 h. On the procedure:
as §3

Data set [9] concerns the target T3, cytochrome P450 2D6. Nature of the data set: CYP inhibition assay (Table S3). Type of data set: biochemical.
In data set [10] the target is T5, cytochrome P450 1A2. Nature of the data set: CYP inhibition assay (Table S3). The class given is biochemical.
Data set [11] deals with T22, glutamine–fructose-6-phosphate aminotransferase (GlmS) (Staphylococcus aureus, UniProt Q2FWA0).
T22 construct: recombinant wild-type GlmS
T22 sequence (Q2FWA0 entry or part of it): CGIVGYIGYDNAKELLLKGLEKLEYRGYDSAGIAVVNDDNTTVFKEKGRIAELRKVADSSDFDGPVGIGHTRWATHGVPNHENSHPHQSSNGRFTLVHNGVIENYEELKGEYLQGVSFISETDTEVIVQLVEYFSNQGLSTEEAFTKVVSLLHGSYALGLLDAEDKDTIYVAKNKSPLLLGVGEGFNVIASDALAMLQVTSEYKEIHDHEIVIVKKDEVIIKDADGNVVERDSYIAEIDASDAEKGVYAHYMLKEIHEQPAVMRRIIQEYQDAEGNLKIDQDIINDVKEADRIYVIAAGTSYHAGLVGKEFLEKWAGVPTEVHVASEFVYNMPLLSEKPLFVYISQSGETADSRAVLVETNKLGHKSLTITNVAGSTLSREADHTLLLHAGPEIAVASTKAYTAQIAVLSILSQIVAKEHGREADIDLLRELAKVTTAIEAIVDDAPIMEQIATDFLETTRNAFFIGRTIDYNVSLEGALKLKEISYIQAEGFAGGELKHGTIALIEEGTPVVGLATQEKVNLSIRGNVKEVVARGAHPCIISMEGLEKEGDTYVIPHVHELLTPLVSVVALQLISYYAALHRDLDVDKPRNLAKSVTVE
Nature of the data set: GDH-coupled glutaminase assay; intact protein MS (+[…] Da, truncated adduct); competitive gel-based IA-alkyne labeling; isoDTB-ABPP. The class given is biochemical.

The target of data set [12] is T22, glutamine–fructose-6-phosphate aminotransferase (GlmS). Nature of the data set: GDH-coupled glutaminase assay (turnover reduced to about […] at […]). The class given is biochemical. To be noted: read-out: % residual turnover at 100 μM.

T4 sequence (P08684 2-503): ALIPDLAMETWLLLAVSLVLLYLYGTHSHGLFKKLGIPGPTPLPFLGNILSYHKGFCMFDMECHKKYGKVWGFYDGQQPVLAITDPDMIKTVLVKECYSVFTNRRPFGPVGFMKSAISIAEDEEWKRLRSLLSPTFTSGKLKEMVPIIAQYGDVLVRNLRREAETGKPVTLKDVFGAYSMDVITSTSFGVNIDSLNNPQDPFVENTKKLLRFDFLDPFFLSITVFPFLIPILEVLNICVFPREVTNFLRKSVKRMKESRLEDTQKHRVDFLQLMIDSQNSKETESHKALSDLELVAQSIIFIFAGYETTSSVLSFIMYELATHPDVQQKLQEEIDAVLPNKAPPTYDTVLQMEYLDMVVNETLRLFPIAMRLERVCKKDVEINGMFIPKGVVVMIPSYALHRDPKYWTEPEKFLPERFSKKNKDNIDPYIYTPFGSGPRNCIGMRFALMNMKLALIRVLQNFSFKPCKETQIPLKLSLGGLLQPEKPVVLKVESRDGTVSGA
T5 sequence (P05177 2-516): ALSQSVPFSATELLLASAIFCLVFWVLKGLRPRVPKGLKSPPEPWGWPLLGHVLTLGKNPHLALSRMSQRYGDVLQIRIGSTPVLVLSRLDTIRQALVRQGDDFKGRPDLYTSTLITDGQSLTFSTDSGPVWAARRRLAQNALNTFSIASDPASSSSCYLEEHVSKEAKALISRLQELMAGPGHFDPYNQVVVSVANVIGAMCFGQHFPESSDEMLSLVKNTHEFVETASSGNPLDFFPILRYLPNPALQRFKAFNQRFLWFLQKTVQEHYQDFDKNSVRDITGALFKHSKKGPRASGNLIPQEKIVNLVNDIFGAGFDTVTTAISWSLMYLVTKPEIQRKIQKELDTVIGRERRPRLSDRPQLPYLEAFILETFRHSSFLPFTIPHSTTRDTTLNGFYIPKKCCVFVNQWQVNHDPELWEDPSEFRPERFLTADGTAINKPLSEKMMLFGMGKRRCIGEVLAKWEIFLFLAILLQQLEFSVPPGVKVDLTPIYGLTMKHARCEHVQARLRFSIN

For `[C-]#[N+]C(c1ccc(F)cc1Cl)S(=O)(=O)c1ccc(C)cc1` (stereo not shown) [I16], the MIC is above 50 µM against E. coli K12 [1]; 1.56 µM (≈ 0.505 µg/mL) against S. aureus USA300 Lac; above 100 µM against E. coli K12 [8]; above 100 µM in the data set on S. typhimurium LT2; 1.56 µM (≈ 0.505 µg/mL) in the data set with S. pneumoniae DSM 20567; above 100 µM against K. pneumoniae DSM 30104. In addition, the MIC in the data set on S. epidermidis RP62 A is 1 µM (≈ 0.324 µg/mL); against L. monocytogenes EGD-e, 1 µM (≈ 0.324 µg/mL); against S. aureus NCTC 8325, 0.78 to 1.56 µM (≈ 0.253 to 0.505 µg/mL); in the data set with A. baumannii ATCC 19606, above 100 µM; in the data set with S. pyogenes ATCC 700294, above 100 µM; in the data set with B. subtilis 168 it was 12.5 µM (≈ 4.05 µg/mL). The MIC against E. faecalis V583 was above 100 µM; against S. aureus USA300 LAC J2 it was 1.56 µM (≈ 0.505 µg/mL); against E. coli UTI89, above 100 µM; in the data set with P. aeruginosa PAO1 it was above 100 µM; with A. baumannii 5075 it was above 100 µM; against E. faecium DSM17050 it was above 100 µM. The IC50 against cytochrome P450 2D6 [2] was determined as 59.3 ± 20 nM; against cytochrome P450 3A4 [3], 26.1 ± 8 nM; against cytochrome P450 1A2 [4], 60.8 ± 17 nM; at cytochrome P450 2C9 [5], 144 ± 53 nM. The “CYP inhibition assay (Table S3)” value on cytochrome P450 3A4 [6] was “I16 inhibited all tested CYP isoforms (2C9, 2D6, 1A2, and 3A4) at nanomolar concentrations”; on cytochrome P450 2C9 [7] it was “I16 inhibited all tested CYP isoforms (2C9, 2D6, 1A2, and 3A4) at nanomolar concentrations”; on cytochrome P450 2D6 [9], “I16 inhibited all tested CYP isoforms (2C9, 2D6, 1A2, and 3A4) at nanomolar concentrations”; at cytochrome P450 1A2 [10] it was “I16 inhibited all tested CYP isoforms (2C9, 2D6, 1A2, and 3A4) at nanomolar concentrations”. Besides, the “GDH-coupled glutaminase assay; intact protein MS (+27.5 Da, truncated adduct); c” value in data set [11] is “glutamate release rate decreased concentration-dependently by I16, corroborating its interaction with the active site cysteine”.
For `NC(=O)CI` [IA, iodoacetamide], the remaining activity at 100 µM in data set [12] is around 35%.

As usually defined, the IC50 is the concentration that inhibits the measured activity by half.
